Entries after “also recorded” stand apart in the source; their conditions may differ.
What was measured:
[1] = tested on: KRAS-mutant lung cancer cell lines; assay: Clonogenic assay; format: cell-based, human; details: for sensitization to trametinib (MEK inhibition) in combination: combined with trametinib, KRAS-mutant lung cancer cell lines
Procedure: All experiments were performed at least three times. Representative experiments are shown.

[2] = tested on: BRAF and KRAS-mutant cancers of multiple lineages; details: GDSC dataset; BRAF-mutant compared with KRAS-mutant tumor cells; cited from earlier work

Row | Molecule | sensitization to trametinib (MEK inhibition) in combination [1] | sensitivity to MEK inhibitor (IC50), BRAF-mutant versus KRAS-mutant tumor cells [2] | further results
1 | CCN1CCN(c2ccc(Nc3cc(N(C)C(=O)Nc4c(Cl)c(OC)cc(OC)c4Cl)ncn3)cc2)CC1 [BGJ398] | comparable effects; also recorded: confer sensitivity to MEK inhibition | – | –
2 | COCC(=O)NC/C=C/c1ccc2ncnc(Nc3ccc(Oc4ccc(C)nc4)c(C)c3)c2c1 [CP724714] | – | – | synergy when combined with Trametinib ([1]; H23 cells, combined with Trametinib): no synergy
3 | O=C(NOC[C@H](O)CO)c1ccc(F)c(F)c1Nc1ccc(I)cc1F [PD0325901] | – | significantly more sensitive | –
4 | COc1cc(F)c(F)c(Nc2ccc(I)cc2F)c1NS(=O)(=O)C1(C[C@H](O)CO)CC1 [RDEA119] | – | significantly more sensitive | –
5 | AZD4547 | comparable effects; also recorded: confer sensitivity to MEK inhibition | – | –
6 | O=C(Nc1ccc2[nH]nc(-c3ccncc3)c2c1)[C@@H]1CCN(CC(=O)N2CCN(c3ccc(-c4ncccn4)cc3)CC2)C1 [SCH772984] | – | – | effect of co-treatment on antiproliferative effects of Trametinib ([1]; co-treatment with Trametinib compared with Trametinib alone): enhances the antiproliferative effects of trametinib

— patent US10792284B2, “Synergistic cancer treatment” (Memorial Sloan Kettering Cancer Center, priority 2015, dated 2020)
